According to publication PMC9499467, “Phenanthroindolizidine Alkaloids Isolated from Tylophora ovata as Potent Inhibitors of Inflammation, Spheroid Growth, and Invasion of Triple-Negative Breast Cancer” (International Journal of Molecular Sciences, 2022):
Like-named read-outs stand apart in the source and are kept apart here.

Assays:
NFκB = NFκB inhibition assay (2 h), NFκB-dependent nanoluc luciferase reporter; assay type: cell-based, human; settings: read-out: NFκB Inhibition 2 h IC50; NFκB-MDA-MB-231-nanoluc cells, 2-h treatment, mean ± SD
Procedure: Experiments were performed according to the published protocol. On day 1, 4 × 10^4 NFκB-MDA-MB-231-nanoluc cells were seeded into white 96 well plates (Greiner; #655098). On day 2, the medium was replaced with starvation medium and the cells were pre-incubated for 20 min with either 100 µL of DMSO (Roth; #A994.1) alone at a concentration of maximal 0.1% or with the final concentration of the diluted compounds (Table 3). To activate NFκB signaling, cells were stimulated with 1 µg/mL LPS (Sigma-Aldrich; #L2630) beforehand. NFκB-dependent luciferase activity was measured according to the manufacturer`s protocol for the Nano-Glo Luciferase Assay System (Promega, Mannheim, Germany; #N1110). NFκB-dependent luminescence was determined as relative light units (RLU) using the microplate reader Spark® (Tecan, Männedorf, Switzerland).

MDA-MB-231 = assay: 2D cell viability (PrestoBlue resazurin) in MDA-MB-231; assay type: cell-based, human; settings: read-out: Reduction of Cell Viability 24 h IC50; MDA-MB-231 2D monolayer, 24 h post-treatment, mean ± SD
Procedure: Cell viability was determined based on resazurin-reduction in viable cells according to the PrestoBlue^TM Assay. On day 1, MDA-MB-231 (1.5 × 10^4 cells per well or 7.5 × 10^3 cells per well) were seeded into black 96 well plates (Greiner; #655090) in a total volume of 100 µL. On day 2, the compounds or DMSO (Roth; #A994.1) alone at maximal 0.1% were applied (final concentrations after serial dilution shown in Table 3). An amount of 20 µM staurosporine (Sigma-Aldrich; #S5921) served as a positive control. On day 3, the PrestoBlue^TM reagent (Invitrogen^TM, Darmstadt, Germany; #A13262) was applied according to the manufacturer`s instructions. Finally, cell viability-dependent fluorescence was recorded in relative fluorescence units (RFU) with excitation/emission (Exλ/Emλ) at 535/590 nm or 560/590 nm, using the microplate reader Spark® (Tecan).

[1] = tested on: 3D co-culture spheroids of MDA-MB-231 and primary murine CAFs; assay: 3D cell viability (ATP content) in TNBC co-culture spheroids; assay type: cell-based, human MDA-MB-231
Procedure: On day 1, 3000 cells were seeded into a low-attachment 96 well plate (Greiner; #650970). […] Cell viability was determined based on the ATP content in viable cells according to the manufacturer`s instructions (Promega #G9682). Co-culture spheroids were generated for 72 h before they were grown for another 72 h with or without exposure to the compounds. […] Cell viability-dependent luminescence was determined as relative light units (RLU) using the microplate reader Spark® (Tecan).

IκBα = assay: Western blot of IκBα after TNFα stimulation; assay type: cell-based; settings: MDA-MB-468-UnaG
Procedure: We investigated NFκB-blocking by determining the protein expression of its cytoplasmic inhibitor IκBα in MDA-MB-468-UnaG cells. On day 1, the cells were seeded into a 6 well plate (Greiner; #657160). On day 2, the cells were either left untreated (normoxia) or exposed to 100 µM CoCl2 (hypoxia) (Sigma-Aldrich; #C8661). On day 3, the medium was replaced, and cells were either exposed to DMSO (Roth; #A994.1) alone at maximal 0.1% or to compound (1s) at the concentrations 2 nM, 5 nM, 10 nM, 20 nM, or 50 nM for 1 h. An amount of 10 ng/mL TNFα was applied as a positive control. […] An amount of 20 µg of the total protein was separated on a ready-to-use 12% SDS-gel (Bio-Rad, Düsseldorf, Germany; #456-1044). […] For protein detection via chemiluminescence, the membrane was incubated in HRP-substrate (Thermo Fisher Scientific; #34577) for 5 min and the signal was recorded using the Fusion Pulse TS microscope (VILBER, Eberhardzell; Germany). Signal quantification was performed using the software EvolutionCapt (VILBER). […]
Figure 8 Compound (1s) stabilizes IκBα under normoxic and under hypoxic conditions. […] Statistical difference vs. TNFα was calculated with two-way ANOVA (* p < 0.05, ** p < 0.01, *** p < 0.001). […]

Row | SMILES | IC50 (NFκB) [nM] | IC50 (MDA-MB-231) [nM] | IC50 ([1]; read-out: Reduction of Cell Viability 72 h IC50, 3D co-culture spheroids, 72 h treatment, mean ± SD (n = 3)) [nM] | IC50 ([1]; Mus musculus, MDA-MB-231, 72 h, read-out: Reduction of Cell Viability 72 h IC50, 3D co-culture spheroids, 72 h treatment, mean ± SD (n = 3)) [nM] | TNFα-mediated IκBα degradation (IκBα; CoCl2-simulated hypoxia, 20 nM) | IκBα protein level after TNFα (IκBα; normoxia, 20 nM pre-incubation 1 h, TNFα 10 ng/mL 30 min)
1 | COc1ccc2c3c(c4cc(OC)c(OC)cc4c2c1)CN1CCCC1C3O (centres unmarked) [Compound (1), O-methyltylophorinidine] | 17.1 ± 2 | 13.6 ± 0.4 | 21.7 ± 2.5 |  |  | 
2 | COc1ccc2c3c(c4cc(OC)c(OC)cc4c2c1)CN1CCCC1C3O (centres unmarked) [Compound (1s), O-methyltylophorinidine] | 3.3 ± 0.2 | 4.2 ± 1 |  | 11.2 ± 2.1 | suppressed | stabilized IκBα
